US5602156A, “Method for inhibiting metalloproteinase expression” (The United States of America as represented by the …, priority 1994, dated 1997)
“Also recorded” adds a separate entry of the source.

Key:
MMP-2 [1] = assay: Gelatin zymography of HT1080 cells, compound 1 with or without TGF-β1 (densitometry); assay type: cell-based, human; settings: control band = 100%
Experimental: Conditioned media for zymogram and Western blot analysis were produced under serum-free conditions. Cells (2 million) were plated in 25 cm^2 flasks in serum-containing medium and cultured overnight. Serum-containingmedium was removed and the cell monolayers were washed twice with DMEM/ITS (DMEM containing insulin (5 μg/mL), transferrin (5 μg/mL), and selenium (5 ng/mL)). The resultant cells were fed with 3 mL of DMEM/ITS and additives as described in the Examples for two 24 hour periods. Conditioned media samples were collected at 24 hours and cells were refed with fresh DMEM/ITS containing the described additives for an additional 24 hours. Conditioned media samples were centrifuged to remove cells and debris then frozen at -20° C. until use. Freeze and thaw cycles of the conditioned media were limited to no more than two.
A2058 human melanoma cells, human HT1080 fibrosarcoma cells, and OVCAR3 human ovarian cancer cells were incubated with increasing concentrations of compound 1 (0.2-20 μM) or DMSO control (0.05%) and subjected to gelatin zymography. Aliquots of conditioned medium (15 μL) were electrophoresed on gelatin-containing 10% PAGE gels under nonreducing but denaturing conditions. These conditions allow the different gelatin-degrading species (MMPs) to separate by size. The enzymes renature after removal of the SDS by incubation of the gel with 2.5 % Triton X-100, and degrade the gelatin substrate present in the polyacrylamide gel upon overnight incubation in low salt collagenase buffer. Bands of clearing, seen after Coomassie blue staining correspond to areas of gelatinase activity.
(§1) A2058 and HT1080 cells were incubated with compound 1 (2 μM), with or without TGF-β1 (5 ng/mL) for 24 and 48 hours prior to harvest of conditioned media. Aliquots were subjected to gelatin zymography as described in Example 1. Known concentrated conditioned medium from HT1080 cells was used for identification of the gelatinase species (92 kDa, gelatinase B/MMP-9; 72 kDa, gelatinase A/MMP-2 latent form; 65 kDa intermediate and 62 kDa activated forms of MMP-2).
(§2) Lane 1 is the control resulting from treatment of the cells with 0.1% DMSO. Lanes 2 and 3 correspond to those cells which are treated with 2 μM compound 1 in the absence of TGF-β1 for 24 and 48 hours, respectively. Lane 4 corresponds to cells which have been treated with TGF-β1 in the absence of compound 1. Lane 5 corresponds to cells which have been treated with TGF-β1 for 48 hours with compound 1 being added to the incubation mixture for the final 24 hours. Lane 6 corresponds to cells which have been treated for 48 hours with both TGF-β1 and compound 1.
*The control band was defined as 100% gelatinase activity and the other
bands were normalized to it. Numbers reflect triplicate measurements from
each zymogram band of representative zymograms. Standard deviations, not

[2] = system: gelatinase activity of the metalloproteinases; assay: Zymogram slices incubated with compound 1 or calcium chelators in the activating buffer (direct inhibition of enzyme); assay type: biochemical, human
Experimental: See, Felder, et al., J. Pharm. Exp. Therapeut. 257:967-971 (1991) and unpublished observations by the inventors.
Gelatin zymography was carded out using control conditioned media from A2058 cells and HT1080 cells in the absence of compound 1. Zymogram slices were incubated in low salt collagenase buffer with control (DMSO 0.1%), an inhibitory dose of compound 1 (20 μM), or the calcium chelators EGTA (10 mM) and EDTA (10 mM). […] See, Brown, et al., Cancer Res. 50:6184-6191 (1990). […] Lane 1 for each of the zymograms corresponds to A2058 while lane 2 corresponds to HT1080.

MMP-2 [3] = assay: Western immunoblot of conditioned media from compound 1 and TGF-β1 treated cells; assay type: cell-based, human; settings: HT1080 and A2058; 2 μM, 24 and 48 hr
Experimental: A2058 and HT1080 conditioned media samples were concentrated 10-fold using ultrafiltration units excluding material of less than 10 or 30 kDa in molecular weight. Aliquots of 15 μL were electrophoresed on 4-20% gradient PAGE gels, electrically transferred to membranes and immunoblotted with specific polyclonal antibody to proMMP-2. This antibody, made to the MMP-2/TIMP-2 complex recognizes the latent and activated MMP-2 species and crossreacts with TIMP-2 (21 kDa).
as §1
as §2, with “Lane 6 corresponds to cells which have been treated for 48 hours with both TGF-β1 and compound 1.” left out

MMP-1 = assay: Northern blot of MMP-1 mRNA from A2058 cells; assay type: cell-based, human; settings: 2 μM
Experimental: This example illustrates the effect of compound 1 on MMP-1 and MMP-2 mRNA from A2058 cells using Northern blot analysis.
Total cytoplasmic RNA was purified from A2058 cells using cesium chloride density centrifugation. Cells were treated with DMSO vehicle (0.05 %) or compound 1 (2 μM) for 24 or 48 hr. Total RNA yields from treated and control cells (μg/10^6 cells) were similar. Aliquots (5 μg) of total RNA were denatured and separated on formaldehyde-1% agarose slab gels, passively transferred to GeneScreen, and crosslinked using ultraviolet light exposure. RNA was hybridized in buffer (50% deionized formamide, 5x SSC, 10 mM Tris HCl pH 7.5, 1x Denharts solution without albumin, 1.0% SDS, and 0.125 mg/mL salmon sperm DNA) containing 10^6 counts/mL of ^32 P- labeled probe of either MMP-2, MMP-1, or with GAPDH which was used as a measure of RNA load. Probes were labeled to high specific activity with ^32 P-dCTP using a random primer labeling protocol. The cDNA probes for the MMP-2, MMP-1, and GAPDH have been described. See, Brown, et al., Cancer Res. 50:6184-6191 (1990); Templeton, et at., Cancer Res. 50:5431-5437 (1990); and Fort, et al., Nucleic Acids Res. 13:1431-1441 (1985). Radiolabeled bands were quantitated using laser densitometric analysis of autoradiography bands. […]

phospholipase C-γ = settings: cited from earlier work
[4] = with TGF-β, 2 μM compound 1, 24 hr
[5] = with TGF-β, 2 μM compound 1, 48 hr
[6] = without TGF-β, 2 μM compound 1, 24 hr
[7] = without TGF-β, 2 μM compound 1, 48 hr

NC(=O)c1nnn(Cc2cc(Cl)c(C(=O)c3ccc(Cl)cc3)c(Cl)c2)c1N [Compound 1, 5-amino-l-(4-(4-chlorobenzoyl)-3,5-dichlorobenzyl)-1,2,3-triazole-4-carboxamide]
gelatinase activity, 65 + 62 kDa (MMP-2 [1]; [4]): 194% | gelatinase activity, 72 kDa (MMP-2 [1]; [4]): 52% | gelatinase activity, 65 + 62 kDa (MMP-2 [1]; [5]): 116% | gelatinase activity, 72 kDa (MMP-2 [1]; [5]): 10% | gelatinase activity, 65 + 62 kDa (MMP-2 [1]; [6]): 125% | gelatinase activity, 72 kDa (MMP-2 [1]; [6]): 10% | gelatinase activity, 65 + 62 kDa (MMP-2 [1]; [7]): 24% | gelatinase activity, 72 kDa (MMP-2 [1]; [7]): 0.6% | mechanism not due to calcium chelation [2]: not due to calcium chelation | gelatinase activity of enzymes in isolation ([2]; compound 1 in zymogram incubation buffer, 20 μM, A2058 and HT1080 media): lack of reduction of gelatinolytic activity in conditioned medium; also recorded: does not inhibit gelatinase activity of the metalloproteinases; also recorded: did not effect its activity in isolation | inhibition of MMP-2 (immunoblot) (MMP-2 [3]): inhibits MMP-2 in a time-dependent manner | expression of interstitial collagenase MMP-1 (MMP-1): inhibits the expression of interstitial collagenase MMP-1 | tyrosine phosphorylation with activation of phospholipase C-γ (phospholipase C-γ): inhibits
